From US11678665B2, “Pyrazine-4-carbamate or -urea derivatives as herbicides” (Syngenta Participations AG, priority 2017, dated 2023)

Experiments:
Format in all cases: in vivo
[1] = test system: Echinochloa crus-galli (ECHCG); experiment: Pre-emergence herbicidal activity, ECHCG; conditions: 1000 g/ha, sprayed pre-emergence, evaluated after 13 days, damage score 0-5
Experimental: (§1) Seeds of a variety of test species were sown in standard soil in pots: Triticum aestivium (TRZAW), Avena fatua (AVEFA), Alopecurus myosuroides (ALOMY), Echinochloa crus-galli (ECHCG), Lolium perenne (LOLPE), and Setaria faberi (SETFA). After cultivation for one day (pre-emergence) under controlled conditions in a glasshouse (at 24/16° C., day/night; 14 hours light; 65% humidity), the plants were sprayed with an aqueous spray solution derived from the formulation of the technical active ingredient in acetone/water (50:50) solution containing 0.5% Tween 20 (polyoxyethelyene sorbitan monolaurate, CAS RN 9005-64-5). The test plants were then grown in a glasshouse under controlled conditions (at 24/16° C., day/night; 14 hours light; 65% humidity) and watered twice daily. After 13 days, the test was evaluated (5=total damage to plant; 0=no damage to plant).

[2] = test system: Lolium perenne (LOLPE); experiment: Pre-emergence herbicidal activity, LOLPE; parameters: key: 5=total damage to plant; 0=no damage to plant; conditions: 1000 g/ha, sprayed pre-emergence, evaluated after 13 days, damage score 0-5
Experimental: as §1

[3] = test system: Setaria faberi (SETFA); experiment: Pre-emergence herbicidal activity, SETFA; conditions: 1000 g/ha, sprayed pre-emergence, evaluated after 13 days, damage score 0-5
Experimental: as §1

[4] = test system: Avena fatua (AVEFA); experiment: Pre-emergence herbicidal activity, AVEFA; parameters: key: 5=total damage to plant; 0=no damage to plant; conditions: 1000 g/ha, sprayed pre-emergence, evaluated after 13 days, damage score 0-5
Experimental: as §1

[5] = test system: Alopecurus myosuroides (ALOMY); experiment: Pre-emergence herbicidal activity, ALOMY; parameters: key: 5=total damage to plant; 0=no damage to plant; conditions: 1000 g/ha, sprayed pre-emergence, evaluated after 13 days, damage score 0-5
Experimental: as §1

[6] = test system: Triticum aestivium (TRZAW); experiment: Pre-emergence herbicidal activity, TRZAW; parameters: key: 5=total damage to plant; 0=no damage to plant; conditions: 1000 g/ha, sprayed pre-emergence, evaluated after 13 days, damage score 0-5
Experimental: as §1

[7] = test system: Echinochloa crus-galli (ECHCG); experiment: Post-emergence herbicidal activity, ECHCG; conditions: 1000 g/ha, sprayed post-emergence (8 days cultivation), evaluated after 13 days, damage score 0-5
Experimental: (§2) Seeds of a variety of test species were sown in standard soil in pots: Triticum aestivium (TRZAW), Avena fatua (AVEFA), Alopecurus myosuroides (ALOMY), Echinochloa crus-galli (ECHCG), Lolium perenne (LOLPE), and Setaria faberi (SETFA). After 8 days cultivation (post-emergence) under controlled conditions in a glasshouse (at 24/16° C., day/night; 14 hours light; 65% humidity), the plants were sprayed with an aqueous spray solution derived from the formulation of the technical active ingredient in acetone/water (50:50) solution containing 0.5% Tween 20 (polyoxyethelyene sorbitan monolaurate, CAS RN 9005-64-5). The test plants were then grown in a glasshouse under controlled conditions (at 24/16° C., day/night; 14 hours light; 65% humidity) and watered twice daily. After 13 days, the test was evaluated (5=total damage to plant; 0=no damage to plant).

[8] = test system: Lolium perenne (LOLPE); experiment: Post-emergence herbicidal activity, LOLPE; parameters: key: 5=total damage to plant; 0=no damage to plant; conditions: 1000 g/ha, sprayed post-emergence (8 days cultivation), evaluated after 13 days, damage score 0-5
Experimental: as §2

[9] = test system: Setaria faberi (SETFA); experiment: Post-emergence herbicidal activity, SETFA; parameters: key: 5=total damage to plant; 0=no damage to plant; conditions: 1000 g/ha, sprayed post-emergence (8 days cultivation), evaluated after 13 days, damage score 0-5
Experimental: as §2

[10] = test system: Avena fatua (AVEFA); experiment: Post-emergence herbicidal activity, AVEFA; conditions: 1000 g/ha, sprayed post-emergence (8 days cultivation), evaluated after 13 days, damage score 0-5
Experimental: as §2

[11] = test system: Alopecurus myosuroides (ALOMY); experiment: Post-emergence herbicidal activity, ALOMY; parameters: key: 5=total damage to plant; 0=no damage to plant; conditions: 1000 g/ha, sprayed post-emergence (8 days cultivation), evaluated after 13 days, damage score 0-5
Experimental: as §2

[12] = test system: Triticum aestivium (TRZAW); experiment: Post-emergence herbicidal activity, TRZAW; parameters: key: 5=total damage to plant; 0=no damage to plant; conditions: 1000 g/ha, sprayed post-emergence (8 days cultivation), evaluated after 13 days, damage score 0-5
Experimental: as §2

SMILES: CCC(=O)Nc1ncc(-c2cncc(F)c2)nc1C [Compound I2]
- Control of weed species after pre-emergence application: ECHCG [1]: 2
- Control of weed species after pre-emergence application: LOLPE [2]: 0
- Control of weed species after pre-emergence application: SETFA [3]: 3
- Control of weed species after pre-emergence application: AVEFA [4]: 0
- Control of weed species after pre-emergence application: ALOMY [5]: 0
- Control of weed species after pre-emergence application: TRAZW [6]: 0
- Control of weed species after post-emergence application: ECHCG [7]: 4
- Control of weed species after post-emergence application: LOLPE [8]: 0
- Control of weed species after post-emergence application: SETFA [9]: 4
- Control of weed species after post-emergence application: AVEFA [10]: 1
- Control of weed species after post-emergence application: ALOMY [11]: 0
- Control of weed species after post-emergence application: TRAZW [12]: 0

SMILES: CCC(=O)N(C(=O)CC)c1ncc(-c2cncnc2)nc1C(F)(F)F [Compound I12]
- Control of weed species after pre-emergence application: ECHCG [1]: 2
- Control of weed species after pre-emergence application: LOLPE [2]: 0
- Control of weed species after pre-emergence application: SETFA [3]: 3
- Control of weed species after pre-emergence application: AVEFA [4]: 1
- Control of weed species after pre-emergence application: ALOMY [5]: 0
- Control of weed species after pre-emergence application: TRAZW [6]: 0
- Control of weed species after post-emergence application: ECHCG [7]: 3
- Control of weed species after post-emergence application: LOLPE [8]: 1
- Control of weed species after post-emergence application: SETFA [9]: 4
- Control of weed species after post-emergence application: AVEFA [10]: 2
- Control of weed species after post-emergence application: ALOMY [11]: 1
- Control of weed species after post-emergence application: TRAZW [12]: 1

SMILES: CCC(=O)N(C(=O)CC)c1ncc(-c2cncc(F)c2)nc1C(F)(F)F [Compound I1]
- Control of weed species after pre-emergence application: ECHCG [1]: 2
- Control of weed species after pre-emergence application: LOLPE [2]: 1
- Control of weed species after pre-emergence application: SETFA [3]: 3
- Control of weed species after pre-emergence application: AVEFA [4]: 1
- Control of weed species after pre-emergence application: ALOMY [5]: 0
- Control of weed species after pre-emergence application: TRAZW [6]: 0
- Control of weed species after post-emergence application: ECHCG [7]: 4
- Control of weed species after post-emergence application: LOLPE [8]: 1
- Control of weed species after post-emergence application: SETFA [9]: 4
- Control of weed species after post-emergence application: AVEFA [10]: 2
- Control of weed species after post-emergence application: ALOMY [11]: 0
- Control of weed species after post-emergence application: TRAZW [12]: 0

SMILES: COCCC(=O)Nc1ncc(-c2cncc(F)c2)nc1C [Compound I10]
- Control of weed species after pre-emergence application: ECHCG [1]: 2
- Control of weed species after pre-emergence application: LOLPE [2]: 0
- Control of weed species after pre-emergence application: SETFA [3]: 2
- Control of weed species after pre-emergence application: AVEFA [4]: 0
- Control of weed species after pre-emergence application: ALOMY [5]: 0
- Control of weed species after pre-emergence application: TRAZW [6]: 0
- Control of weed species after post-emergence application: ECHCG [7]: 3
- Control of weed species after post-emergence application: LOLPE [8]: 0
- Control of weed species after post-emergence application: SETFA [9]: 2
- Control of weed species after post-emergence application: AVEFA [10]: 1
- Control of weed species after post-emergence application: ALOMY [11]: 0
- Control of weed species after post-emergence application: TRAZW [12]: 0

SMILES: CC(=O)N(C(C)=O)c1ncc(-c2cncnc2)nc1C(F)(F)F [Compound I8]
- Control of weed species after pre-emergence application: ECHCG [1]: 2
- Control of weed species after pre-emergence application: LOLPE [2]: 1
- Control of weed species after pre-emergence application: SETFA [3]: 4
- Control of weed species after pre-emergence application: AVEFA [4]: 0
- Control of weed species after pre-emergence application: ALOMY [5]: 0
- Control of weed species after pre-emergence application: TRAZW [6]: 0
- Control of weed species after post-emergence application: ECHCG [7]: 4
- Control of weed species after post-emergence application: LOLPE [8]: 1
- Control of weed species after post-emergence application: SETFA [9]: 5
- Control of weed species after post-emergence application: AVEFA [10]: 2
- Control of weed species after post-emergence application: ALOMY [11]: 1
- Control of weed species after post-emergence application: TRAZW [12]: 1

SMILES: CC(=O)Nc1ncc(-c2cncc(F)c2)nc1C [Compound I9]
- Control of weed species after pre-emergence application: ECHCG [1]: 1
- Control of weed species after pre-emergence application: LOLPE [2]: 0
- Control of weed species after pre-emergence application: SETFA [3]: 4
- Control of weed species after pre-emergence application: AVEFA [4]: 0
- Control of weed species after pre-emergence application: ALOMY [5]: 0
- Control of weed species after pre-emergence application: TRAZW [6]: 0
- Control of weed species after post-emergence application: ECHCG [7]: 2
- Control of weed species after post-emergence application: LOLPE [8]: 0
- Control of weed species after post-emergence application: SETFA [9]: 3
- Control of weed species after post-emergence application: AVEFA [10]: 2
- Control of weed species after post-emergence application: ALOMY [11]: 0
- Control of weed species after post-emergence application: TRAZW [12]: 0

SMILES: CC(=O)N(C(C)=O)c1ncc(-c2cncc(F)c2)nc1C [Compound I5, 2-(diacetylamino)-3-methyl-5-(5-fluoropyrid-3-yl)pyrazine]
- Control of weed species after pre-emergence application: ECHCG [1]: 2
- Control of weed species after pre-emergence application: LOLPE [2]: 1
- Control of weed species after pre-emergence application: SETFA [3]: 3
- Control of weed species after pre-emergence application: AVEFA [4]: 0
- Control of weed species after pre-emergence application: ALOMY [5]: 0
- Control of weed species after pre-emergence application: TRAZW [6]: 0
- Control of weed species after post-emergence application: ECHCG [7]: 2
- Control of weed species after post-emergence application: LOLPE [8]: 1
- Control of weed species after post-emergence application: AVEFA [10]: 1
- Control of weed species after post-emergence application: ALOMY [11]: 0
- Control of weed species after post-emergence application: TRAZW [12]: 1

SMILES: CC(=O)N(C(C)=O)c1ncc(-c2cncc(F)c2)nc1C(F)(F)F [Compound I4, 2-(diacetylamino)-3-trifluoromethyl-5-(5-fluoropyrid-3-yl)pyrazine]
- Control of weed species after pre-emergence application: ECHCG [1]: 3
- Control of weed species after pre-emergence application: LOLPE [2]: 0
- Control of weed species after pre-emergence application: SETFA [3]: 4
- Control of weed species after pre-emergence application: AVEFA [4]: 1
- Control of weed species after pre-emergence application: ALOMY [5]: 0
- Control of weed species after pre-emergence application: TRAZW [6]: 3
- Control of weed species after post-emergence application: ECHCG [7]: 3
- Control of weed species after post-emergence application: LOLPE [8]: 1
- Control of weed species after post-emergence application: SETFA [9]: 4
- Control of weed species after post-emergence application: AVEFA [10]: 2
- Control of weed species after post-emergence application: ALOMY [11]: 0
- Control of weed species after post-emergence application: TRAZW [12]: 0

SMILES: CC(=O)Nc1ncc(-c2cncc(F)c2)nc1C(F)(F)F [Compound I3, 2-(acetylamino)-3-trifluoromethyl-5-(5-fluoropyrid-3-yl)pyrazine]
- Control of weed species after pre-emergence application: ECHCG [1]: 3
- Control of weed species after pre-emergence application: LOLPE [2]: 0
- Control of weed species after pre-emergence application: SETFA [3]: 4
- Control of weed species after pre-emergence application: AVEFA [4]: 1
- Control of weed species after pre-emergence application: ALOMY [5]: 0
- Control of weed species after pre-emergence application: TRAZW [6]: 0
- Control of weed species after post-emergence application: ECHCG [7]: 3
- Control of weed species after post-emergence application: LOLPE [8]: 1
- Control of weed species after post-emergence application: SETFA [9]: 4
- Control of weed species after post-emergence application: AVEFA [10]: 3
- Control of weed species after post-emergence application: ALOMY [11]: 1
- Control of weed species after post-emergence application: TRAZW [12]: 1
